The source of these data is PMC9014320 (Computational and Structural Biotechnology Journal, 2022).

The subject of one assay is rP2X2^gain. Particulars: rP2X2^gain versus rP2X3^WT.
The next assay concerns the target P2X3 receptors. The conditions noted are these: read-out: IC50, the concentration yielding half of the maximal inhibition; cited from earlier work.
The subject of the next assay is rP2X3^L191A. Particulars: cited from earlier work.
For another assay, the system named is P2X2. The conditions noted are these: cited from earlier work.
In another assay the test system is cP2X3^A196G. The experiment in a line: Patch-clamp recording of ATP current, cP2X3 A196G in HEK293 cells. Particulars: AF-219 30 μM. It counts as cell-based, chicken. On the technique in general: Patch clamp records ionic current or voltage across a cell membrane.
The subject of the next assay is P2X4. The conditions noted are these: cited from earlier work.
Another assay has as its system P2X7. Particulars: cited from earlier work.
The next assay has as its system P2X1. Particulars: cited from earlier work.
Another assay has as its system cP2X3^WT. The experiment in a line: Patch-clamp recording of ATP current, cP2X3 WT in HEK293 cells. Format: cell-based, chicken. The conditions noted are these: AF-219 30 μM.
A further assay relates to P2X5. Particulars: cited from earlier work.

In the case of `CCC(C)c1cc(OC)c(Cl)cc1Oc1cnc(N)nc1N` (stereo not shown) [AF-219-2, 5-(2-(sec-butyl)-5-chloro-4-methoxyphenoxy)pyrimidine-2,4-diamine], the “Fold increase of IC50 for rP2X2^gain over rP2X3^WT” value in the assay with rP2X2^gain was 18 fold.
Consider `COc1cc(C(C)C)c(Oc2cnc(N)nc2N)cc1S(N)(=O)=O` [AF-219], for which the IC50 is 0.0426 ± 0.0029 µM at P2X3 receptors; above 10 µM with P2X2; above 10 µM in the assay on P2X4; above 10 µM with P2X7; above 10 µM in the assay with P2X1; above 10 µM in the assay on P2X5. Further, the “Inhibition of rP2X3^L191A” value in the assay with rP2X3^L191A is listed as “almost fully abolished the inhibition”. Besides, the “Effect on the ATP (10 μM)-current of cP2X3^A196G” value in the assay on cP2X3^A196G was “significantly inhibited”. The “Effect on the ATP (10 μM)-current of cP2X3^WT” value in the assay with cP2X3^WT is given as “no inhibitory effect”.
